Read-outs that look alike come from different tables or passages of the source.
Target: MCH receptor (Homo sapiens, UniProt Q99705)
Assay: High throughput functional screening FLIPR/FDSS6000: inhibition of MCH-evoked intracellular Ca2+ changes
Format: cell-based
Conditions: for class: class by percent of control at 10^-7 M or IC50; for IC50: read-out: class
Summary of the method: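 Constitutively active non-endogenous MCH-R cells; Fluo4-AM 4 μM, 2.5 mM probenecid, 1 hr, 37° C; cpd 3 min, 37° C; MCH 50 nM (antagonist mode); kinetic Ca2+ read Ex488/Em530, 290 s.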

[1] = class by percent of control at 10^−7 M or by IC50

Substance	class	further results
N-(3,5-difluorobenzyl)-N′-[(cis-4-{[4-(dimethylamino)quinazolin-2-yl]amino}cyclohexyl)methyl]urea [compound 524]	1 (Class 1: The value of percent of control at 10^−7 M was less than 40% or the value of IC50 was less than 50 nM.)	–
N-(cis-4-{[4-(dimethylamino)quinazolin-2-yl]amino}cyclohexyl)-6-(3,4,5-trimethoxyphenoxy)nicotinamide [Example 1067]	–	IC50 [1]: 50 to 200 nM
N-(cis-4-{[4-(dimethylamino)quinazolin-2-yl]amino}cyclohexyl)-6-(3-methylphenoxy)nicotinamide [Example 1055]	–	IC50 [1]: < 50 nM
N-[3-(dimethylamino)propyl]-N′-[(cis-4-{[4-(dimethylamino)-quinazolin-2-yl]amino}cyclohexyl)methyl]thiourea [compound 807]	–	IC50 (class by percent of control at 10^-7 M or by IC50): > 200 nM
N-[(cis-4-{[4-(dimethylamino)quinazolin-2-yl]amino}cyclohexyl)methyl]-N′-(2,4,6-tribromophenyl)urea [compound 475]	1 (Class 1: The value of percent of control at 10^−7 M was less than 40% or the value of IC50 was less than 50 nM.)	–
N-[(cis-4-{[4-(dimethylamino)quinazolin-2-yl]amino}cyclohexyl)methyl]-N′-(2-methoxy-4-nitrophenyl)urea [compound 507]	2 (Class 2: The value of percent of control at 10^−7 M was from 40% to 60% or the value of IC50 was from 50 nM to 200 nM.)	–
N-[(cis-4-{[4-(dimethylamino)quinazolin-2-yl]amino}cyclohexyl)methyl]-N′-(2-methoxy-5-nitrophenyl)urea [compound 508]	2 (Class 2: The value of percent of control at 10^−7 M was from 40% to 60% or the value of IC50 was from 50 nM to 200 nM.)	–
